Data published in patent US6649568B2, “Brassinosteroid biosynthesis inhibitor” (Riken, priority 2000, dated 2003).

Legend:
[1] = tested on: brassinosteroid biosynthesis; details: reported in Japanese Patent Application No. 10-227939; cited from earlier work
[2] = tested on: elongation of cress lower hypocotyl; assay: Inhibition of elongation of cress lower hypocotyl, with rescue by brassinolide or gibberellin; type: in vivo; details: FIG. 2
Method: Surfaces of cress seeds purchased were sterilized with 1% NaOCl solution for 20 minutes and washed 5 times with distilled water. The resulting cress seeds were sown on 1% agar-solidified medium (containing 0.5×Murashige and Skoog salts and 1.5% sucrose in Agripot (Kirin Brew Co., Tokyo)). The plants was grown in a growth chamber kept at 25[…] under a cycle of 16 hour light (240 μEm-2s-1) and 8 hour dark conditions. […] The inhibitory effect of the compound of the present invention against elongation of cress lower hypocotyl was suppressed by addition of blassinolide, whilst not suppressed by addition of gibberellin (FIG. 1).

SMILES: CC(O)(c1ccccc1)C(Cc1ccc(Cl)cc1)c1nc[nH]n1 (centres unmarked) [Brz91, 4-(4-chlorophenyl)-2-phenyl-3-(1,2,4-triazolyl)butan-2-ol]
- inhibitory action against the brassinosteroid biosynthesis [1]: had the desired inhibitory action

SMILES: C=CCC(O)(c1ccccc1)C(Cc1ccc(Cl)cc1)n1cncn1 (centres unmarked) [Brz2001, 6-(4-Chlorophenyl)-4-phenyl-5-(1,2,4-triazoyl)hexen-1-en-4-ol]
- inhibitory action against brassinosteroid biosynthesis, comparison with Brz91 [2]: inhibitory action
